Tested on: PBMC (polyclonal gluten-specific T cells) of paediatric and adult CD patients
Assay: IFN-γ ELISpot of PBMC after 3 day oral wheat challenge (SFU, % of maximal peptide response, dominance scores, EC50; Examples 5-6)
Type: cell-based, human
Settings: for Cross-reactive T cell response: following wheat challenge; for IFN-γ ELISpot response: after oral wheat challenge
[1] = subject I (3-5yrs/6-10yrs part)
[2] = subject J (3-5yrs/6-10yrs part)
[3] = subject K (3-5yrs/6-10yrs part)
[4] = subject V (3-5yrs/6-10yrs part)
[5] = subject W (3-5yrs/6-10yrs part)
[6] = subject Y (3-5yrs/6-10yrs part)
[7] = subject five (3-5yrs/6-10yrs part)
[8] = subject seven (3-5yrs/6-10yrs part)
[9] = subject six (3-5yrs/6-10yrs part)
[10] = subject ten (3-5yrs/6-10yrs part)
[11] = subject two (3-5yrs/6-10yrs part)

QEFPQPEQPFPQQ
Cross-reactive T cell response (subject A, 11-17yrs): 4 SFU
Significant response as a percentage of maximal peptide SFU (subject D, 11-17yrs): ′′′ (41-70% = ′′′)
Cross-reactive T cell response (subject D, 11-17yrs): 15 SFU
Significant response as a percentage of maximal peptide SFU (subject E, 11-17yrs): ′ (11-20% = ′)
Cross-reactive T cell response (subject E, 11-17yrs): 30 SFU
Significant response as a percentage of maximal peptide SFU (subject F, 11-17yrs): ′′ (21-40% = ′′)
Cross-reactive T cell response (subject F, 11-17yrs): 38 SFU
Cross-reactive T cell response (subject G, 11-17yrs): 4 SFU
Cross-reactive T cell response (subject H): 1 SFU
Cross-reactive T cell response [1]: 8 SFU
Significant response as a percentage of maximal peptide SFU (subject J): ′′′ (41-70% = ′′′)
Cross-reactive T cell response [2]: 93 SFU
Significant response as a percentage of maximal peptide SFU (subject K): ′′ (21-40% = ′′)
Cross-reactive T cell response [3]: 21 SFU
Cross-reactive T cell response (subject P, 11-17yrs): 7 SFU
Significant response as a percentage of maximal peptide SFU (subject Q, 11-17yrs): ′′′ (41-70% = ′′′)
Cross-reactive T cell response (subject Q, 11-17yrs): 44 SFU
Significant response as a percentage of maximal peptide SFU (subject T, 11-17yrs): + (>70% = +)
Cross-reactive T cell response (subject T, 11-17yrs): 67 SFU
Significant response as a percentage of maximal peptide SFU (subject U, 11-17yrs): ′′ (21-40% = ′′)
Cross-reactive T cell response (subject U, 11-17yrs): 23 SFU
Significant response as a percentage of maximal peptide SFU (subject V): ′′ (21-40% = ′′)
Cross-reactive T cell response [4]: 11 SFU
Cross-reactive T cell response [5]: 3 SFU
Cross-reactive T cell response [6]: 2 SFU
Significant response as a percentage of maximal peptide SFU (subject five): + (>70% = +)
Cross-reactive T cell response [7]: 36 SFU
Cross-reactive T cell response (subject nine, 11-17yrs): 1 SFU
Cross-reactive T cell response [8]: 2 SFU
Cross-reactive T cell response [9]: 6 SFU
Cross-reactive T cell response [10]: 8 SFU
Significant response as a percentage of maximal peptide SFU (subject two): ′′′ (41-70% = ′′′)
Cross-reactive T cell response [11]: 30 SFU

PFPEQPEQPYPQQ
IFN-γ ELISpot response (patient A, 11-17 yrs, cut-off 10 SFU): 0 SFU
IFN-γ ELISpot response (patient E, H, 11-17 yrs, cut-off 10 SFU): 14 SFU
Significant response as percentage of maximal peptide SFU (patient E, max peptide 224 SFU): (6-10% = ^)
IFN-γ ELISpot response (patient F, 11-17 yrs, cut-off 10 SFU): 8 SFU
IFN-γ ELISpot response (patient G, 11-17 yrs, cut-off 10 SFU): 1 SFU
IFN-γ ELISpot response (patient H (HLA-DQ2.5 homozygote), 3-5yrs, cut-off 10 SFU): 11 SFU
IFN-γ ELISpot response (patient H, 11-17 yrs, cut-off 10 SFU): 1 SFU
IFN-γ ELISpot response (patient ID not given, 11-17 yrs, cut-off 10 SFU): 14 SFU
Significant response as percentage of maximal peptide SFU (patient ID not given, max peptide 95 SFU): ′ (11-20% = ′)
Significant response as percentage of maximal peptide SFU (patient II, max peptide 15 SFU): + (>70% = +)
Significant response as percentage of maximal peptide SFU (patient M, max peptide 48 SFU): ′ (11-20% = ′)
IFN-γ ELISpot response (patient N, 3-5yrs, cut-off 10 SFU): 1 SFU
IFN-γ ELISpot response (patient P, 11-17 yrs, cut-off 21.6 SFU): 15 SFU
IFN-γ ELISpot response (patient Q, 11-17 yrs, cut-off 10 SFU): 19 SFU
Significant response as percentage of maximal peptide SFU (patient Q, max peptide 97 SFU): ′ (11-20% = ′)
IFN-γ ELISpot response (patient U, H, 11-17 yrs, cut-off 10 SFU): 2 SFU
IFN-γ ELISpot response (patient V, 6-10 yrs, cut-off 10 SFU): 7 SFU
IFN-γ ELISpot response (patient Y, 6-10 yrs, cut-off 10 SFU): 5 SFU
IFN-γ ELISpot response (patient eleven, 6-10 yrs, cut-off 10 SFU): 3 SFU
Significant response as percentage of maximal peptide SFU (patient five, max peptide 48 SFU): ′′ (21-40% = ′′)
IFN-γ ELISpot response (patient four, 3-5yrs, cut-off 10 SFU): 4 SFU
IFN-γ ELISpot response (patient seven, 6-10 yrs, cut-off 10.5 SFU): 3 SFU
IFN-γ ELISpot response (patient ten, 3-5yrs, cut-off 10 SFU): 5 SFU
IFN-γ ELISpot response (patient three, 6-10 yrs, cut-off 10.5 SFU): 9 SFU
IFN-γ ELISpot response (patient twelve, 11-17 yrs, cut-off 10 SFU): 2 SFU
IFN-γ ELISpot response (patient two, 3-5yrs, cut-off 10 SFU): 6 SFU

FPQTEQPEQPFPQP
Cross-reactive T cell response (subject A, 11-17yrs): 1 SFU
Cross-reactive T cell response (subject D, 11-17yrs): 0 SFU
Cross-reactive T cell response (subject E, 11-17yrs): 3 SFU
Cross-reactive T cell response (subject F, 11-17yrs): 2 SFU
Cross-reactive T cell response (subject G, 11-17yrs): 2 SFU
Cross-reactive T cell response (subject H): 1 SFU
Cross-reactive T cell response [1]: 0 SFU
Significant response as a percentage of maximal peptide SFU (subject J): ′′ (21-40% = ′′)
Cross-reactive T cell response [2]: 67 SFU
Significant response as a percentage of maximal peptide SFU (subject K): ′′ (21-40% = ′′)
Cross-reactive T cell response [3]: 19 SFU
Cross-reactive T cell response (subject P, 11-17yrs): 3 SFU
Significant response as a percentage of maximal peptide SFU (subject Q, 11-17yrs): ′ (11-20% = ′)
Cross-reactive T cell response (subject Q, 11-17yrs): 10 SFU
Cross-reactive T cell response (subject T, 11-17yrs): 7 SFU
Cross-reactive T cell response (subject U, 11-17yrs): 5 SFU
Cross-reactive T cell response [4]: 6 SFU
Cross-reactive T cell response [5]: 5 SFU
Cross-reactive T cell response [6]: 3 SFU
Cross-reactive T cell response [7]: 5 SFU
Cross-reactive T cell response (subject nine, 11-17yrs): 0 SFU
Cross-reactive T cell response [8]: 5 SFU
Cross-reactive T cell response [9]: 4 SFU
Significant response as a percentage of maximal peptide SFU (subject ten): + (>70% = +)
Cross-reactive T cell response [10]: 13 SFU
Cross-reactive T cell response [11]: 3 SFU
